Laboratory results reported in US20260365670A1, “EGFR INHIBITORS AND USES THEREOF” (DIZAL (JIANGSU) PHARMACEUTICAL CO., LTD., priority 2022, published 2026).
Like-named read-outs stand apart in the source and are kept apart here.

What was measured:
[1] = molecular target: T1, EGFR[T790M/C797S/L858R] (Homo sapiens, UniProt P00533, C797S/L858R/T790M); experiment: Inhibition of EGFR[T790M/C797S/L858R] biochemical enzymatic activity (HTRF); conditions: 1 mM ATP
T1 construct: purchased Carna Bio
How it was run: (§1)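 Enzyme preincubated with compound, then ATP (1 mM) and TK substrate-biotin (1 μM) added; 1 h RT; stopped with EDTA-containing detection mix; HTRF read (ex 320, em 615/665 nm); IC50 by 4-parameter logistic fit.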

[2] = molecular target: T2, EGFR (C797S L858R) (Homo sapiens, UniProt P00533, C797S/L858R); experiment: Inhibition of EGFR (C797S L858R) biochemical enzymatic activity (HTRF); conditions: 1 mM ATP
T2 construct: purchased signalchem
How it was run: as §1

[3] = molecular target: T3, EGFR Exon19Del (Homo sapiens, UniProt P00533, DEL746-750); experiment: Inhibition of EGFR Exon19Del biochemical enzymatic activity (HTRF); conditions: read-out: IC50 @Del19
T3 construct: purchased Carna Bio
How it was run: as §1

[4] = tested on: Ba/F3 cells expressing EGFR mutations; experiment: Cell proliferation assay, Ba/F3 cells expressing EGFR mutations (CellTiter-Glo, 72 hours); assay type: cell-based
How it was run: (§2)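 Growth over 72 h was quantified by CellTiter-Glo luminescence, normalised as (G3 − G0)/(DMSO G3 − G0), for PC-9 cells seeded at 500/well and EGFR-mutant Ba/F3 cells at 5000/well in RPMI1640. Compound concentration series added after overnight incubation; GI50 obtained from best-fit curves.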

[5] = tested on: PC-9; experiment: Cell proliferation assay, PC-9 cells (CellTiter-Glo, 72 hours); assay type: cell-based; conditions: PC9 cells, read-out: GI50 PC9
How it was run: as §2

[6] = tested on: A-431; experiment: Cell proliferation assay, A-431 cells (GI50, Table 6); assay type: cell-based; conditions: Homo sapiens, A-431, A-431 cells
[7] = molecular target: T4, EGFR[T790M/C797S/d746-750] (Homo sapiens, UniProt P00533, C797S/DEL746-750/T790M); experiment: Inhibition of EGFR[T790M/C797S/d746-750] biochemical enzymatic activity (HTRF)
T4 construct: purchased Carna Bio
How it was run: as §1

[8] = molecular target: T5, EGFR L858R/T790M (Homo sapiens, UniProt P00533, L858R/T790M); experiment: Inhibition of EGFR L858R/T790M biochemical enzymatic activity (HTRF); conditions: 1 mM ATP
T5 construct: purchased Carna Bio
How it was run: as §1

[9] = molecular target: T6, EGFR wild type (Homo sapiens, UniProt P00533); experiment: Inhibition of EGFR wild type biochemical enzymatic activity (HTRF); conditions: 1 mM ATP
T6 construct: purchased Carna Bio
How it was run: as §1

[10] = molecular target: T7, EGFR Exon19Del/T790M (Homo sapiens, UniProt P00533, DEL746-750/T790M); experiment: Inhibition of EGFR Exon19Del/T790M biochemical enzymatic activity (HTRF); conditions: 1 mM ATP
T7 construct: purchased Carna Bio
How it was run: as §1

[11] = molecular target: T8, EGFR L858R (Homo sapiens, UniProt P00533, L858R); experiment: Inhibition of EGFR L858R biochemical enzymatic activity (HTRF); conditions: 1 mM ATP
T8 construct: purchased Carna Bio
How it was run: as §1

[12] = molecular target: T9, EGFR (d746-750 C797S) (Homo sapiens, UniProt P00533, C797S/DEL746-750); experiment: Inhibition of EGFR (d746-750 C797S) biochemical enzymatic activity (HTRF); conditions: 1 mM ATP
T9 construct: purchased signalchem
How it was run: as §1

[13] = EGFR[T790M/C797S/L858R], 1 h at room temperature, read-out: IC50 @T790M- C797S - L858R
[14] = EGFR (C797S L858R), 1 h at room temperature, read-out: IC50 @L858-C797S
[15] = EGFR Exon19Del, 1 mM ATP, 1 h at room temperature
[16] = BaF3 cells, EGFR DEL19 - C797S, read-out: GI50 DEL19 - C797S/BaF3
[17] = BaF3 cells, EGFR DEL19 - T790-C797S, read-out: GI50 DEL19 - T790-C797S/BaF3
[18] = BaF3 cells, EGFR L858R - C797S, read-out: GI50 L858R - C797S/BaF3
[19] = BaF3 cells, EGFR L858R - T790-C797S, read-out: GI50 L858R - T790-C797S/BaF3
[20] = BaF3 cells, EGFR L858R - T790M, read-out: GI50 L858R - T790M/BaF3
[21] = BaF3 cells, EGFR L858R, read-out: GI50 L858R/BaF3
[22] = EGFR DEL19 - T790M, read-out: GI50 DEL19 - T790M
[23] = EGFR[T790M/C797S/d746-750], 1 mM ATP, 1 h at room temperature, read-out: IC50 @T790M - C797S - Del19
[24] = EGFR L858R/T790M, 1 h at room temperature, read-out: IC50 @L858R-T790M
[25] = EGFR wild type, 1 h at room temperature, read-out: IC50 @WT
[26] = EGFR Exon19Del/T790M, 1 h at room temperature, read-out: IC50 @Del19-T790M
[27] = 1 h at room temperature, read-out: IC50 @L858R
[28] = EGFR (d746-750 C797S), 1 h at room temperature, read-out: IC50 @Del19-C797S

T9 sequence (P00533 with tags, fused parts or gaps DEL746-750/C797S limits assumed): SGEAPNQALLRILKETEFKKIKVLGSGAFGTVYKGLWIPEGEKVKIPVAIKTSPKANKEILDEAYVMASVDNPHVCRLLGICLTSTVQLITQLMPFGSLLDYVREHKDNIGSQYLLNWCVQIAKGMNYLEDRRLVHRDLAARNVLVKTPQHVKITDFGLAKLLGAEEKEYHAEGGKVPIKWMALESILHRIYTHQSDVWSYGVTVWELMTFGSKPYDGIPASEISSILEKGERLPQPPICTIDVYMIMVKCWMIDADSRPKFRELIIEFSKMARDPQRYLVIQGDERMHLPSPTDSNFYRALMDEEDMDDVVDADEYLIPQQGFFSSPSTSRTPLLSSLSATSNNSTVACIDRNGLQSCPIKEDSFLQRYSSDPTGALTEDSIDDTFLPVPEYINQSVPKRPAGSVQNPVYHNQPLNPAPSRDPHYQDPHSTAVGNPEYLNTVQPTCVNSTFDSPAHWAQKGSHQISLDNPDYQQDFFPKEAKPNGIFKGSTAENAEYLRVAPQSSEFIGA
T5 sequence (P00533 25-1210 T790M/L858R): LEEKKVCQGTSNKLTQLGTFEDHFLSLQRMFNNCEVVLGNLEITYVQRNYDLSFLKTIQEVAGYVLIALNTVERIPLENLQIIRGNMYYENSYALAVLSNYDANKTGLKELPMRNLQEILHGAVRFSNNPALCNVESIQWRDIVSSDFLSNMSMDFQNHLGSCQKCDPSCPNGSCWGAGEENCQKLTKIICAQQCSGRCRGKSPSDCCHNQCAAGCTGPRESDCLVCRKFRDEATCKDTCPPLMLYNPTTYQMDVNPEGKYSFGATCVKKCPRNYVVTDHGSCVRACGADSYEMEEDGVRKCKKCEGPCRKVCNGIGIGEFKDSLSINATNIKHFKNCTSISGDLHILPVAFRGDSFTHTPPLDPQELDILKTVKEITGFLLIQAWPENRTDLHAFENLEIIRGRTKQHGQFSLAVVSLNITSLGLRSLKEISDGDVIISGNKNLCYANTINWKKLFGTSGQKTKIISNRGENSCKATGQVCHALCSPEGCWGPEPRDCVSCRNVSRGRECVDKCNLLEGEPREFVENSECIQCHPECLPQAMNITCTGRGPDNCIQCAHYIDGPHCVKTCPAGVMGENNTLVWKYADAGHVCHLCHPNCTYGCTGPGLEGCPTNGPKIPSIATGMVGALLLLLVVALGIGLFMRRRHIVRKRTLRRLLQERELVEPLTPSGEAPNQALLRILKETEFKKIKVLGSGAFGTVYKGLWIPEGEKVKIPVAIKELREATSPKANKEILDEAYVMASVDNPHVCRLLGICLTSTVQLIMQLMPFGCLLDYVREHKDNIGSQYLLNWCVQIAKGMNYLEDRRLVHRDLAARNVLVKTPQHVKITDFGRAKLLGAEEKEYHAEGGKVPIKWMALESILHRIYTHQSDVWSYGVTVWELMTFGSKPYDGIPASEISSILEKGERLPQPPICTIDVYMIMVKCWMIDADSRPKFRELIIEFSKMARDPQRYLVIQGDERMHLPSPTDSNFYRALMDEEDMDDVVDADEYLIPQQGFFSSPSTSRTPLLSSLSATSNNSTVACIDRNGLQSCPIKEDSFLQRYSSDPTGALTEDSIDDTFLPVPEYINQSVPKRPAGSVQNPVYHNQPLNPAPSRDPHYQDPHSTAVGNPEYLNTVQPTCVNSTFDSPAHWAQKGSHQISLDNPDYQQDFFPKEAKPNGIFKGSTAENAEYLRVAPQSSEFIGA
T2 sequence (P00533 25-1210 C797S/L858R): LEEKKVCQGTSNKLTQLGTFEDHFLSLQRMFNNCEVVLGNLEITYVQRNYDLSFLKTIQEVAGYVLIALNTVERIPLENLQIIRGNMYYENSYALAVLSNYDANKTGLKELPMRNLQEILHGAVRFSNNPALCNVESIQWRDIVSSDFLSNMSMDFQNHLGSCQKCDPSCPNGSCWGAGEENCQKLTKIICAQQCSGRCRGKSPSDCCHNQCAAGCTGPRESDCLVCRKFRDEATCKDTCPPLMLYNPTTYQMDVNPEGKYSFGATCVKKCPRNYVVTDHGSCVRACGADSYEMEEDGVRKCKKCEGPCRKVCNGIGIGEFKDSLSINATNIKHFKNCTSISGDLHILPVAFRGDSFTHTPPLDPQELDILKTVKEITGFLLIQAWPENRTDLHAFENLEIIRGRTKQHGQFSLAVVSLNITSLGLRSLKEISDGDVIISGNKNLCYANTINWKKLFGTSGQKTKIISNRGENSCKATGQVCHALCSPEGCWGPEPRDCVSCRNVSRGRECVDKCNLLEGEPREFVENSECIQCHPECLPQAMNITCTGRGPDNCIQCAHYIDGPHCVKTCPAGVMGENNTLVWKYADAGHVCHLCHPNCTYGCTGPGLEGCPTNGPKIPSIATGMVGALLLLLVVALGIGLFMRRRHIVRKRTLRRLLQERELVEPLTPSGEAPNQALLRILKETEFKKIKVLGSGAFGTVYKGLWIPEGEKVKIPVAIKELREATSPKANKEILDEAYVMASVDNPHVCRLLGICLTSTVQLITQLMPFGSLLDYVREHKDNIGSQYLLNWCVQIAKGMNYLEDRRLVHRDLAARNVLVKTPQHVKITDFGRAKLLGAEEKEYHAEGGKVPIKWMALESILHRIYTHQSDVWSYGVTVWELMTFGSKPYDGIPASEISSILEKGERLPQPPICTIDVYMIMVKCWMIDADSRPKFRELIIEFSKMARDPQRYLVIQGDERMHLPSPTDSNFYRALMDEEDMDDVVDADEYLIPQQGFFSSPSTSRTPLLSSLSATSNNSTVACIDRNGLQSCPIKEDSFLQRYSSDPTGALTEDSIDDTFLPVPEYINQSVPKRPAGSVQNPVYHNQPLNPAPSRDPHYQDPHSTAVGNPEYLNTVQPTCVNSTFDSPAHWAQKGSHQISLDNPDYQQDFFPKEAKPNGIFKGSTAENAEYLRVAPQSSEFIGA
T4 sequence (P00533 with tags, fused parts or gaps DEL746-750/T790M/C797S limits assumed): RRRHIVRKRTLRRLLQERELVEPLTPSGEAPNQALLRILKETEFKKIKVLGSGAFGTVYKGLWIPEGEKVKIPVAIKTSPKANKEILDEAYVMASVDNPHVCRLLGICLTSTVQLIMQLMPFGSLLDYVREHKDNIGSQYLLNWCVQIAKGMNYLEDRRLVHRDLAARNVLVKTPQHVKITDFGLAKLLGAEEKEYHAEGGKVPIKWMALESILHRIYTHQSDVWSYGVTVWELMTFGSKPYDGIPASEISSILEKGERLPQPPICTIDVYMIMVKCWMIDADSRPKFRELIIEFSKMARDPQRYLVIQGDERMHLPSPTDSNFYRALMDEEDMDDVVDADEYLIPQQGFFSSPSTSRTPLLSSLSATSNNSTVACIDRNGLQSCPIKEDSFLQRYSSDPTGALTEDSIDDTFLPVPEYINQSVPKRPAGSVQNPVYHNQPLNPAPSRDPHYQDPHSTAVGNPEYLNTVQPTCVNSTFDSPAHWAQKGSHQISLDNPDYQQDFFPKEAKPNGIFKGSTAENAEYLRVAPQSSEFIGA
T6 sequence (P00533 25-1210): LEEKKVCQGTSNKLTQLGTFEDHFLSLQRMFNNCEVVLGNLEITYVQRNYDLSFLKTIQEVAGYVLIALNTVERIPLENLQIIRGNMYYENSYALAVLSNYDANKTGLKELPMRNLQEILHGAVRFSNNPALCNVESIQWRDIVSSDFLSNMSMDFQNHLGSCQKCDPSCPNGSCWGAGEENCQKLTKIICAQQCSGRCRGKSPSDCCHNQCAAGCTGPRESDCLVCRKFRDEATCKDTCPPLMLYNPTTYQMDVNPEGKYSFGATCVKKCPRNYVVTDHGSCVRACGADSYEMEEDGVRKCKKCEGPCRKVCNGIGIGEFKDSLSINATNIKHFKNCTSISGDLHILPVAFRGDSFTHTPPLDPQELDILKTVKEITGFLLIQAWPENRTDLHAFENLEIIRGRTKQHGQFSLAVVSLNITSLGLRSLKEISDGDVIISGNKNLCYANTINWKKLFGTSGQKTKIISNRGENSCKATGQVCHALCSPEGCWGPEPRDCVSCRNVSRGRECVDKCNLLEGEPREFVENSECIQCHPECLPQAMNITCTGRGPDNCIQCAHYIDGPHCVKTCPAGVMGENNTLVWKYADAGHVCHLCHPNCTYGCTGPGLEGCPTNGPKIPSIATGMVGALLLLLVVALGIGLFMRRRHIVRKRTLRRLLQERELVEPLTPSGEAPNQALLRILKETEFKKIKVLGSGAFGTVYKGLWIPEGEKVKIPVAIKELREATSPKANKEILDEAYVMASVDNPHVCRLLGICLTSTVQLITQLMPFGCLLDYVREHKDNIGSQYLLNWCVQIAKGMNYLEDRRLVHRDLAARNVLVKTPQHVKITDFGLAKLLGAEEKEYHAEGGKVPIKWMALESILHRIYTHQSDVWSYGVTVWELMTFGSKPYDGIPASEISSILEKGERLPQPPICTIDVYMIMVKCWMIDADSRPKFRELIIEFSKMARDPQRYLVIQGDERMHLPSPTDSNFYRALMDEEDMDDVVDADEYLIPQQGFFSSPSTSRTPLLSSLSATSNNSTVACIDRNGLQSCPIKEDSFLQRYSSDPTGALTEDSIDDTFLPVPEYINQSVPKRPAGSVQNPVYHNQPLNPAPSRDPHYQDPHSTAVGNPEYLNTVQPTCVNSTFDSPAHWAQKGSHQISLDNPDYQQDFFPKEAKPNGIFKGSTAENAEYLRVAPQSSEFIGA

Row | IC50 [1, 13] [nM] | IC50 [2, 14] [nM] | IC50 [3, 15] [nM] | GI50 [4, 16] [nM] | GI50 [4, 17] [nM] | GI50 [4, 18] [nM] | GI50 [4, 19] [nM] | GI50 [4, 20] [nM] | GI50 [4, 21] [nM] | GI50 [4, 22] [nM] | GI50 [5] [nM] | GI50 [6] [nM] | IC50 [7, 23] [nM] | IC50 [8, 24] [nM] | IC50 [9, 25] [nM] | IC50 [10, 26] [nM] | IC50 [11, 27] [nM] | IC50 [12, 28] [nM] | further results | SMILES
1 | 1.7 | 9.5 | 5.2 | 2 | 2 | 4 | 2 | 2 | 13 | 6 | 10 | 2570 | 1.9 | 2.6 | 971 | 3.9 | 53 | 1.9 |  | Cc1cc2cc(n1)-c1cnn(C)c1OCCN1CC3CCC(C3)(C1)n1c(nc3ccc(N4CC5CC4CN5C)cc31)NC2=O (single isomer, unassigned) [Example B53B]
2 | 1.4 | 14 | 5.3 | 2 | 2 | 4 | 2 | 2 | 11 | 2 | 10 | 1680 | 1.7 | 3.8 | 1020 | 2.8 | 46 | 2.4 |  | Cc1cc2cc(n1)-c1cnn(C)c1OCCN1CC3CCC(C3)(C1)n1c(nc3ccc(N(C)CCCN(C)C)cc31)NC2=O (single isomer, unassigned) [Example B45B]
3 | 1.8 | 6 | 6.1 | 2 | 2 | 8 | 2 | 2 | 9 | 2 | 8 | 257 | 2.6 | 3.7 | 543 | 4.3 | 31 | 2.1 |  | Cc1cc2cc(n1)-c1cnn(C)c1OCCN1CC3CCC(C3)(C1)n1c(nc3ccc(N4CCN(C(C)C)CC4)cc31)NC2=O (single isomer, unassigned) [Example B57B]
4 |  |  |  |  |  |  |  |  |  |  |  | 3530 |  |  |  |  |  |  | IC50 ([1]; EGFR T790M-C797S-L858R, 1 h, room temperature, read-out: IC50 (nM) @T790M- C797S - L858R): 532 nM; IC50 ([2]; EGFR L858-C797S, 1 h, room temperature, read-out: IC50 (nM) @L858-C797S): 3630 nM; IC50 ([3]; EGFR Del19, 1 mM ATP, 1 h, room temperature): 592 nM; GI50 ([4]; Mus musculus, BaF3, 72 h, BaF3 cells, EGFR DEL19 - C797S, read-out: GI50 DEL19 - C797S/BaF3): 125 nM; GI50 ([4]; Mus musculus, BaF3, 72 h, BaF3 cells, EGFR DEL19 - T790-C797S, read-out: GI50 DEL19 - T790-C797S/BaF3): 61 nM; GI50 ([4]; Mus musculus, BaF3, 72 h, BaF3 cells, EGFR L858R - C797S, read-out: GI50 L858R - C797S/BaF3): 342 nM; GI50 ([4]; Mus musculus, BaF3, 72 h, BaF3 cells, EGFR L858R - T790-C797S, read-out: GI50 L858R - T790-C797S/BaF3): 42 nM; GI50 ([4]; Mus musculus, BaF3, 72 h, BaF3 cells, EGFR L858R, read-out: GI50 L858R/BaF3): 612 nM; GI50 ([4]; Mus musculus, BaF3, 72 h, EGFR DEL19 - T790M, read-out: GI50 DEL19 - T790M): 57 nM; GI50 ([5]; Homo sapiens, PC-9, 72 h): 292 nM; IC50 ([7]; EGFR T790M-C797S-Del19, 1 mM ATP, 1 h, room temperature, read-out: IC50 (nM) @T790M - C797S - Del19): 16 nM; IC50 ([8]; EGFR L858R-T790M, 1 h, room temperature, read-out: IC50 (nM) @L858R-T790M): 847 nM; IC50 ([9]; EGFR WT, 1 h, room temperature, read-out: IC50 (nM) @WT): > 5000 nM; IC50 ([10]; EGFR Del19-T790M, 1 h, room temperature, read-out: IC50 (nM) @Del19-T790M): 33 nM; IC50 ([11]; 1 h, room temperature, read-out: IC50 (nM) @L858R): > 5000 nM; IC50 ([12]; EGFR Del19-C797S, 1 h, room temperature, read-out: IC50 (nM) @Del19-C797S): 243 nM | Cc1cc2cc(n1)-c1cnn(C)c1OCCN1CCCCC(C1)n1c(nc3ccccc31)NC2=O (centres unmarked) [Example B4, 15,21-Dimethyl-23-oxa-2,9,11,16,20,21,26-heptaazahexacyclo[24.4.1.1^{13,17}.0^{2,10}.0^{3,8}.0^{18,22}]dotriaconta-3,5,7,9,13(32),14,16,18(22),19-nonaen-12-one]
